The source of these data is patent US8828674B2, “Functional identification of proteins underlying Icrac activity in a cell” (The Queen's Medical Center, priority 2007, dated 2014).

Assay [1] deals with T1, CRACM3 (Homo sapiens, UniProt Q9BRQ5). How it is done:
(§1) To assess the functional properties of CRACM proteins, all three CRACM species were overexpressed in HEK293 cells. CRAC currents were measured in response to rapid Ca2+ store depletion by 20 μM inositol 1,4,5-trisphosphate (IP3) as well as following passive store depletion by perfusing cells with 20 mM BAPTA, which results in a slower store depletion that relies on Ca2+ leaking from stores. Full length human CRACM1 (accession no. NM_032790) and CRACM1-E106Q were subcloned as described. Full length human CRACM2 (accession no. NM_032831) and CRACM3 (accession no. NM_152288) were amplified from cDNAs (purchased from Origene) using high fidelity Pfu Ultra High Fidelity polymerase (Stratagene) and subcloned into pCAGGS-IRES-GFP vector. […] CRACM proteins were over-expressed in HEK293 cells stably expressing STIM1 using lipofectamine 2000 (Invitrogen) and the GFP expressing cells were selected by fluorescence.
(§2) Patch-clamp experiments were performed in the tight-seal whole-cell configuration at 21-25° C. High-resolution current recordings were acquired using the EPC-9 (HEKA). Voltage ramps of 50 ms duration spanning a range of −150 to +150 mV were delivered from a holding potential of 0 mV at a rate of 0.5 Hz over a period of 100-300 sec. All voltages were corrected for a liquid junction potential of 10 mV. Currents were filtered at 2.9 kHz and digitized at 100 μs intervals. Capacitive currents were determined and corrected before each voltage ramp. Extracting the current amplitude at −80 mV from individual ramp current records assessed the low-resolution temporal development of currents. Where applicable, statistical errors of averaged data are given as means± S.E.M. with n determinations. Standard external solutions were as follows (in mM): 120 NaCl, 2 MgCl2, 10 CaCl2, 10 TEA-Cl, 10 HEPES, 10 glucose, pH 7.2 with NaOH, 300 mOsm. In some experiments, Na^+-free solutions were applied, where NaCl was replaced equimolarly by tetraethylammonium-chloride (TEA-Cl). For Ca^2+-free external solutions CaCl2 was omitted, but Mg^2+ was retained. The divalent-free external solution (DVF) was based on the standard external solution but in the absence of CaCl2 and MgCl2 and additionally supplemented with 10 mM EDTA. Divalent replacement solutions were based on the standard external solution but with 10 mM CaCl2 replaced by 10 mM BaCl2. […] Standard internal solutions were as follows (in mM): 120 Cs-glutamate, 20 Cs-BAPTA, 3 MgCl2, 10 HEPES, 0.02 IP3, pH 7.2 with CsOH, 300 mOsm. In the experiments of FIG. 2, 10 mM EGTA was used and in FIG. 3, [Ca^2+]i was buffered to defined levels using 20 mM Cs-BAPTA and appropriate concentrations of CaCl2 as calculated with WebMaxC. For passive-depletion experiments, IP3 was omitted from the internal solution. All chemicals were purchased from Sigma-Aldrich Co.
Normally, CRAC currents are highly Ca^2+-selective and poorly permeable to K^+ or Cs^+, resulting in positive reversal potentials.
The monovalent versus divalent cation permeation was investigated in ion substitution experiments, where either Ca^2+ was removed from the extracellular solution or Na^+ was replaced by TEA.

The target of assay [2] is CRACM1 (Homo sapiens, UniProt Q96D31). The settings on record: without STIM1 overexpression. How it is done: as §1, with “described.” for “described. Full length human CRACM2 (accession no. NM_032831) and CRACM3 (accession no. NM_152288) were amplified from cDNAs (purchased from Origene) using high fidelity Pfu Ultra High Fidelity polymerase (Stratagene) and subcloned into pCAGGS-IRES-GFP vector.”
Sequence of CRACM1 (Q96D31 whole entry): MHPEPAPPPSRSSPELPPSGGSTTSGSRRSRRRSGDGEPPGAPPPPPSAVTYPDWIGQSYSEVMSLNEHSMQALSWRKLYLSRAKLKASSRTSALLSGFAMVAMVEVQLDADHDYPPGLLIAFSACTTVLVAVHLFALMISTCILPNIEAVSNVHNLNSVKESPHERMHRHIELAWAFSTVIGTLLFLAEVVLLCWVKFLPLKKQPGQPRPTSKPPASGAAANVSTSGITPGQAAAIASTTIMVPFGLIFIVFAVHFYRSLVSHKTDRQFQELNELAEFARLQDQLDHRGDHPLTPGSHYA
(§3) Patch-clamp experiments were performed in the tight-seal whole-cell configuration at 21-25° C. […] Capacitive currents were determined and corrected before each voltage ramp. Extracting the current amplitude at −80 mV from individual ramp current records assessed the low-resolution temporal development of currents. […] In the experiments of FIG. 2, 10 mM EGTA was used and in FIG. 3, [Ca^2+]i was buffered to defined levels using 20 mM Cs-BAPTA and appropriate concentrations of CaCl2 as calculated with WebMaxC. […]

The target of assay [3] is CRACM2 (Homo sapiens, UniProt Q96SN7). The settings on record: 50 μM 2-APB. How it is done:
as §1, with “described.” for “described. Full length human CRACM2 (accession no. NM_032831) and CRACM3 (accession no. NM_152288) were amplified from cDNAs (purchased from Origene) using high fidelity Pfu Ultra High Fidelity polymerase (Stratagene) and subcloned into pCAGGS-IRES-GFP vector.”
as §3

The target in assay [4] is CRACM1-E190A (Homo sapiens, UniProt Q96D31, E190A). How it is done: as §2
Sequence of CRACM1-E190A (Q96D31 whole entry E190A): as the sequence (Q96D31 whole entry) above, with E190A counted along it
Assay [5] addresses CRACM1-E106D (Homo sapiens, UniProt Q96D31, E106D). How it is done: as §2
Assay [6] deals with T1, CRACM3. How it is done: Patch-clamp experiments were performed in the tight-seal whole-cell configuration at 21-25° C. High-resolution current recordings were acquired using the EPC-9 (HEKA). Voltage ramps of 50 ms duration spanning a range of −150 to +150 mV were delivered from a holding potential of 0 mV at a rate of 0.5 Hz over a period of 100-300 sec. All voltages were corrected for a liquid junction potential of 10 mV. Currents were filtered at 2.9 kHz and digitized at 100 μs intervals. Capacitive currents were determined and corrected before each voltage ramp. Extracting the current amplitude at −80 mV from individual ramp current records assessed the low-resolution temporal development of currents. Where applicable, statistical errors of averaged data are given as means± S.E.M. with n determinations. Standard external solutions were as follows (in mM): 120 NaCl, 2 MgCl2, 10 CaCl2, 10 TEA-Cl, 10 HEPES, 10 glucose, pH 7.2 with NaOH, 300 mOsm. In some experiments, Na^+-free solutions were applied, where NaCl was replaced equimolarly by tetraethylammonium-chloride (TEA-Cl). For Ca^2+-free external solutions CaCl2 was omitted, but Mg^2+ was retained. […] In the experiments of FIG. 2, 10 mM EGTA was used and in FIG. 3, [Ca^2+]i was buffered to defined levels using 20 mM Cs-BAPTA and appropriate concentrations of CaCl2 as calculated with WebMaxC. […]
This is another data set of the same source.

[7] abbreviates: 50 μM 2-APB, 0 Ca Sodium Ringer.

Sequence of CRACM1-E106D (Q96D31 whole entry E106D): as the sequence (Q96D31 whole entry) above, with E106D counted along it
Sequence of CRACM2 (Q96SN7 whole entry): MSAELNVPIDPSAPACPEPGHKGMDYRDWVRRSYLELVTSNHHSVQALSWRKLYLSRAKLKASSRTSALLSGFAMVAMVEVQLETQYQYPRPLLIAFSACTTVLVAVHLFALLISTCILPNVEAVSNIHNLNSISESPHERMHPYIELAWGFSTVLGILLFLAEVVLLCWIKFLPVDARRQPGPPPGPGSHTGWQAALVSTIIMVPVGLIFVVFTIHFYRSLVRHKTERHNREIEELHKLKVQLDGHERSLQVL

Take `NCCOB(c1ccccc1)c1ccccc1` [2-APB, 2-aminoethoxydiphenyl borate]: in assay [1] (setting [7]), the “Change of outward current on 2-APB application in Ca2+-free extracellular solution” value is listed as “nearly tripled” and the “Reduction of average inward current on 2-APB application in Ca2+-free extracellular solution versus Ca2+-containing solutions” value was found to be 53%. For the same compound, in assay [1] (50 μM 2-APB, 0 Ca Sodium Ringer, shift from +94 mV), the “Reversal potential with 2-APB in Ca2+-free extracellular solution” value is reported as “+10 mV”. Also, the “Effect of replacing extracellular Na+ with TEA+ on inward or outward currents induced by 2-APB” value in assay [1] (50 μM 2-APB, 10 mM Ca TEA Ringer) was “no significant effect”. In addition, the “Reversal potential after 2-APB application, internal K+” value in assay [1] (50 μM 2-APB, IP3, K+-based internal solution) turned out to be 29 mV. For the same compound, in assay [1] (50 μM 2-APB, STIM1 cells with CRACM3), the “Average 2-APB-mediated current compared to CRACM3 currents without STIM1 overexpression” value is “approximately twice as large”. Also, the “Reversal potential with 2-APB in 10Ca/TEA Ringer” value in assay [1] (50 μM 2-APB, red I/V of FIG. 6G) is reported as “+30 mV”. The “Permeability ratio PCs/PCs in presence of 2-APB” value in assay [1] (Goldman-Hodgkin-Katz analysis, 10Ca/TEA Ringer (red I/V), +30 mV) is given as 50. The “Permeability ratio PNs/PCs in presence of 2-APB” value in assay [1] (Goldman-Hodgkin-Katz analysis, Ca2+-free conditions, Erev=+10 mV) is on record as 1.5. The “Permeability ratio PCa/PNa in presence of 2-APB” value in assay [1] (Goldman-Hodgkin-Katz analysis, normally in excess of 100-fold) worked out at 33. Besides, in assay [2], the “Store- and STIM1-independent gating of wild-type CRACM1 by 2-APB” value was “largely resistant”. For the same compound, the “Sensitivity of CRACM2 to 2-APB-mediated inhibition (versus CRACM1)” value in assay [3] was “significantly less sensitive”. In assay [4] (50 μM 2-APB after IP3-induced CRAC currents fully activated), the “Response of CRACM1-E190A co-expressed with STIM1 to 2-APB” value is recorded as “large facilitation followed by rapid inhibition”. Also, the “Response of CRACM1-E190A expressed alone, without STIM1, to 2-APB” value in assay [4] (50 μM 2-APB, wild-type HEK293, no IP3, [Ca2+]i ~150 nM) was “large, transient increase in both inward and outward current”. Also, in assay [4] (CRACM1-E190A with STIM1, 50 μM 2-APB, +55 mV before 2-APB), the “Reversal potential of the 2-APB-facilitated current” value was “+33 mV”. In addition, the “Response of CRACM1-E106D expressed alone to 2-APB” value in assay [5] (50 μM 2-APB, [Ca2+]i 150 nM, no STIM1) was “rapid increase in inward current, followed by complete block, and a slow reactivation”. Besides, the “Reversal potential of the reactivated current after 2-APB” value in assay [5] (CRACM1-E106D alone, +16 mV for the mutant without 2-APB) stood at 0 mV. Moreover, the “Current with 2-APB administered intracellularly” value in assay [6] (50 μM 2-APB in pipette solution, [Ca2+]i ~150 nM) is reported as “no store-operated or 2-APB induced current was elicited”. For the same compound, the “Reversal potential of the 2-APB-evoked CRACM3 current” value in assay [6] (50 μM 2-APB, CRACM3 alone, FIG. 6D) is recorded as “+30 mV”.
